Molecules are shown by their SMILES. Some results are limits rather than exact numbers.

For the first assay, the system named is Nicotiana benthamiana. In words: Test Example 4: growth promotion under low-temperature stress by hydroponics of Nicotiana benthamiana (10 ppm). Conditions: compound at 10 ppm, 7 days at 1.5±1.0° C. low-temperature stress, then 3 days at 22° C., 5 or greater = growth promotion effect, read-out: value of a relative leaf area (Equation (1), area of green leaf). Type of assay: in vivo. On the procedure: Test Example 4. Test for Evaluating Growth Promotion Under Low-Temperature Stress by Hydroponics of Nicotiana benthamiana
(§1) (Cultivation and Compound Treatment)
(§2) A DMSO solution, which contained one of the compounds 4, 5, 6, 8, 14, 17, 19, 22, 26, 45, 51, 53, 57, 59, 65, 69, 70, 75, 77, 79, 91, 97, 99, 101, and 110 of the present invention at a concentration of 10,000 ppm, was prepared. The DMSO solution of the compound of the present invention was added at a volume ratio of 1/1,000 to the Murashige⋅Scoog medium of a ½-fold concentration (a medium containing 2.3 g of mixed salts (manufactured by Wako Pure Chemical Industries, Ltd.), 200 mg of Myo-inositol (manufactured by Sigme-Aldrich Co. LLC.), 2 mg of niconitic acid (manufactured by Wako Pure Chemical Industries, Ltd.), 2 mg of pyridoxine hydrochloride (manufactured by Wako Pure Chemical Industries, Ltd.), 20 mg of thiamine hydrochloride (manufactured by Wako Pure Chemical Industries, Ltd.), 20 g of sucrose (manufactured by Wako Pure Chemical Industries, Ltd.), and 1 g of MES (manufactured by DOJINDO LABORATORIES) respectively per 1 L of water and having pH adjusted to 5.8), thereby preparing a medium containing the compound of the present invention at a concentration of 10 ppm.
(§3) Seeds of Nicotiana benthamiana were seeded in the 5 of the medium and cultured overnight at 22° C. Thereafter, 45 μL of the medium containing the compound of the present invention at a concentration of 10 ppm was added thereto, and the seeds are cultured for 7 days at 22° C., under the conditions of an illuminance of 4,000 lux, and a day length of 16 hours, and the seedling raised from the Nicotiana benthamiana were treated with the compound. Moreover, instead of the above medium a test plot, which was obtained by performing the same treatment by using a medium prepared by adding DMSO to the Murashige⋅Scoog medium of ½-fold concentration at a volume ratio of 1/1,000, was used as a control plot not treated with the compound.
(§4) (Low-Temperature Stress Treatment)
(§5) The seedlings of the Nicotiana benthamiana treated with the compound were subjected to low-temperature treatment by being cultured for 7 days at 1.5±1.0° C., under the conditions of an illuminance of 2,000 lux, and a day length of 16 hours.
(§6) The seedlings of the Nicotiana benthamiana having undergone the low-temperature stress treatment were cultured for 3 days at 22° C., an illuminance of 4,000 lux, and a day length of 16 hours. Thereafter, the area of green leaf was quantified by Scanalyzer HTS (manufactured by LemnaTec GmbH). Moreover, the value of the control plot not treated with the compound that had not yet been subjected to the low-temperature stress treatment was measured in the same manner. A value of a relative leaf area was calculated based on the following equation (1), and if the relative value of leafed area was 5 or greater, the compound was evaluated to have a growth promotion effect. As a result of the evaluation, it was confirmed that when the plant was treated with one of the compounds 4, 5, 6, 8, 14, 17, 19, 22, 26, 45, 51, 53, 57, 59, 65, 67, 69, 70, 75, 77, 79, 91, 97, 99, 101, and 110 of the present invention at 10 ppm, the value of a relative leaf area was 5 or greater, compared to the area of green leaf of the control plot not treated with compound. Accordingly, it was confirmed that the treatment using the compound of the present invention improve a growth promotion effect. Relative leaf area=100*(a green area of a plot treated with the compound of the present invention minus(−) a green area of a plot not treated with the compound of the present invention)/(a green area of a control plot not treated with the compound of the present invention that had not yet been subjected to low-temperature stress treatment minus(−) a green area of a control plot not treated with the compound of the present invention) Equation (1): […]
On to `O=C(O)c1cc2cc(Cl)ccc2s1` [Present compound 6, 5-chlorobenzo[b]thiophene-2-carboxylic acid], for which the relative green leaf area at 10 ppm is at least 5%.

In the case of `O=C(O)c1cc2c(I)cccc2s1` [Present compound 14], the relative green leaf area at 10 ppm was at least 5%.

`O=C(O)c1cc2c([N+](=O)[O-])cccc2s1` [Present compound 17, 4-nitrobenzo[b]thiophene-2-carboxylic acid]: the relative green leaf area at 10 ppm was at least 5%.

As to `O=C(O)c1cc2ccc([N+](=O)[O-])cc2s1` [Present compound 19, 6-nitrobenzo[b]thiophene-2-carboxylic acid], the relative green leaf area at 10 ppm is at least 5%.

With `Cc1ccc2cc(C(=O)O)sc2c1` [Present compound 22], the relative green leaf area at 10 ppm is at least 5%.

Regarding `O=C(O)c1sc2ccccc2c1C(F)(F)F` [Present compound 26, 3-(trifluoromethyl)benzo[b]thiophene-2-carboxylic acid], the relative green leaf area at 10 ppm was at least 5%.

Take `O=C(O)c1cc2cc(-c3cccnc3)ccc2s1` [Present compound 45, 5-(3-pyridyl)benzo[b]thiophene-2-carboxylic acid]: the relative green leaf area at 10 ppm is at least 5%.

With `O=C(O)c1ccc2sc(C(=O)O)cc2c1` [Present compound 53, benzo[b]thiophene-2,5-dicarboxylic acid], the relative green leaf area at 10 ppm was at least 5%.

Consider `O=C(c1ccccc1)c1ccc2sc(C(=O)O)cc2c1` [Present compound 57, 5-benzoylbenzo[b]thiophene-2-carboxylic acid], for which the relative green leaf area at 10 ppm is at least 5%.

In the case of `NC(=O)c1ccc2sc(C(=O)O)cc2c1` [Present compound 59, 5-aminocarbonylbenzo[b]thiophene-2-carboxylic acid], the relative green leaf area at 10 ppm was at least 5%.

On to `O=C(Nc1ccc2sc(C(=O)O)cc2c1)c1ccccc1` [Present compound 65, 5-(benzoylamino)benzo[b]thiophene-2-carboxylic acid], for which the relative green leaf area at 10 ppm is at least 5%.

`CC(=O)Nc1c(C(=O)O)sc2ccccc12` [Present compound 69, 3-acetylamino-benzo[b]-thiophene-2-carboxylic acid]: the relative green leaf area at 10 ppm is at least 5%.

`O=C(O)c1cc2cc(NC(=O)C(F)(F)F)ccc2s1` [Present compound 70, 5-(trifluoroacetylamino)benzo[b]thiophene-2-carboxylic acid]: the relative green leaf area at 10 ppm was at least 5%.

Regarding `Cc1ccc(S(=O)(=O)Nc2ccc3sc(C(=O)O)cc3c2)cc1` [Present compound 75, 5-[(4-methylphenylsulfonyl)amino]benzo[b]thiophene-2-carboxylic acid], the relative green leaf area at 10 ppm was at least 5%.

With `O=C(O)c1cc2cc(O)ccc2s1` [Present compound 77], the relative green leaf area at 10 ppm is at least 5%.

As for `O=C(O)c1cc2cccc(O)c2s1` [Present compound 79], the relative green leaf area at 10 ppm is at least 5%.

For `O=C(O)c1cc2ccc(OCc3ccc(C(F)(F)F)cc3)cc2s1` [Present compound 91, 6-(4-trifluoromethylbenzyloxy)benzo[b]thiophene-2-carboxylic acid], the relative green leaf area at 10 ppm is at least 5%.

As for `CSc1ccc2sc(C(=O)O)cc2c1` [Present compound 97, 5-methylthiobenzo[b]thiophene-2-carboxylic acid], the relative green leaf area at 10 ppm is at least 5%.

Take `O=C(O)c1cc2cc([S+]([O-])C(F)(F)F)ccc2s1` (stereo not shown) [Present compound 99, 5-(trifluoromethylsulfinyl)benzo[b]thiophene-2-carboxylic acid]: the relative green leaf area at 10 ppm is at least 5%.

Turning to `O=C(O)c1cc2cc(S(F)(F)(F)(F)F)ccc2s1` [Present compound 101, 5-pentafluorosulfanylbenzo[b]thiophene-2-carboxylic acid], the relative green leaf area at 10 ppm is at least 5%.

`CN(C)c1c(C(=O)O)sc2ccc(C(F)(F)F)cc12` [Present compound 110, 3-(N,N-dimethylamino)-5-trifluoromethylbenzo[b]thiophene-2-carboxylic acid]: the relative green leaf area at 10 ppm is at least 5%.

The subject of the next assay is Nicotiana benthamiana. In words: Test Example 6: growth promotion under low-temperature stress by hydroponics of Nicotiana benthamiana (0.1 ppm). Type of assay: in vivo. Conditions: compound at 0.1 ppm, 7 days at 1.5±1.0° C. low-temperature stress, then 3 days at 22° C., 5 or greater = growth promotion effect, read-out: value of a relative leaf area (Equation (1), area of green leaf). Here is the method:
Test Example 6. Test for Evaluating Growth Promotion Under Low-Temperature Stress by Hydroponics of Nicotiana benthamiana
as §1
as §2, with “2, 3, 7, 11 to 13, 20, 23, 24, 30, 38, 39, 41 to 43, 46, 50, 64, 68, 80, 82, 88, 93, 94, 96, 104, 107,” for “4, 5, 6, 8, 14, 17, 19, 22, 26, 45, 51, 53, 57, 59, 65, 69, 70, 75, 77, 79, 91, 97, 99, 101,”, “112” for “110”, “[…]” for “10,000”, “[…]” for “MES”, “0.1” for “10”
as §3, with “the 5 μL of the” for “the 5 of the”, “concentration of 0.1 ppm was” for “concentration of 10 ppm was”, “at 22° C. under the” for “at 22° C., under the”, “and the seedlings raised from” for “and the seedling raised from”, “to the Murashige′Scoog medium of” for “to the Murashige⋅Scoog medium of”
as §4, §5
as §6, with “22° C., under the conditions of an illuminance” for “22° C., an illuminance”, “value of leaf area was” for “value of leafed area was”, “the compounds 2, 3, 7, 11 to 13, 20, 23, 24, 30, 38, 39, 41 to 43, 46, 50, 64, 68, 80, 82, 88, 93, 94, 96, 104, 107, and 112” for “the compounds 4, 5, 6, 8, 14, 17, 19, 22, 26, 45, 51, 53, 57, 59, 65, 67, 69, 70, 75, 77, 79, 91, 97, 99, 101, and 110”, “107, and 112 of the” for “101, and 110 of the”, “invention at 0.1 ppm, the” for “invention at 10 ppm, the”, “treatment minus(−) green area” for “treatment minus(−) a green area”
Take `O=C(O)c1cc2cc(F)ccc2s1` [Present compound 2, 5-fluorobenzo[b]thiophene-2-carboxylic acid]: the relative green leaf area at 0.1 ppm was at least 5%.

`Cc1cccc2sc(C(=O)O)cc12` [Present compound 20, 4-methylbenzo[b]thiophene-2-carboxylic acid]: the relative green leaf area at 0.1 ppm was at least 5%.

Take `Cc1cccc2cc(C(=O)O)sc12` [Present compound 23, 7-methylbenzo[b]thiophene-2-carboxylic acid]: the relative green leaf area at 0.1 ppm is at least 5%.

Take `Cc1c(C(=O)O)sc2ccccc12` [Present compound 24, 3-methylbenzo[b]thiophene-2-carboxylic acid]: the relative green leaf area at 0.1 ppm is at least 5%.
